Experimental data published in ChEMBL document CHEMBL2177042, “Design, synthesis, and antidiabetic activity of 4-phenoxynicotinamide and 4-phenoxypyrimidine-5-carboxamide derivatives as potent and orally efficacious TGR5 agonists” (J Med Chem, 2012).

How the values were obtained:
Format in all cases: ADME, organism-based
[1] = Cmax in Sprague-Dawley rat at 5 mg/kg, po; design: dose 5 mg/kg, route oral; conditions: in vivo
[2] = Tmax in Sprague-Dawley rat at 5 mg/kg, po; design: dose 5 mg/kg, route oral; conditions: in vivo
[3] = Drug level in ICR mouse bile at 50 mg/kg, po after 1 hr; design: dose 50 mg/kg, route oral; conditions: read-out: Drug uptake
[4] = AUC (0 to 4.5 hrs) in ICR mouse bile at 50 mg/kg, po; design: time < 4.5 hr, dose 50 mg/kg, route oral
[5] = Drug level in ICR mouse bile at 50 mg/kg, po after 2.5 hrs; design: dose 50 mg/kg, route oral; conditions: read-out: Drug uptake
[6] = AUC (0 to 4.5 hrs) in ICR mouse plasma at 50 mg/kg, po; design: time < 4.5 hr, dose 50 mg/kg, route oral
[7] = Cmax in ICR mouse bile at 50 mg/kg, po; design: dose 50 mg/kg, route oral
[8] = MRT in Sprague-Dawley rat at 5 mg/kg, po; design: dose 5 mg/kg, route oral; conditions: in vivo
[9] = Drug level in ICR mouse gall bladder at 50 mg/kg, po after 4.5 hrs; design: dose 50 mg/kg, route oral; conditions: read-out: Drug uptake
[10] = AUC (0 to 4.5 hrs) in ICR mouse gall bladder at 50 mg/kg, po; design: time < 4.5 hr, dose 50 mg/kg, route oral
[11] = Drug level in ICR mouse gall bladder at 50 mg/kg, po after 0.5 hrs; design: dose 50 mg/kg, route oral; conditions: read-out: Drug uptake
[12] = Plasma concentration in ICR mouse at 50 mg/kg, po after 4.5 hrs; design: dose 50 mg/kg, route oral
[13] = Cmax in ICR mouse gall bladder at 50 mg/kg, po; design: dose 50 mg/kg, route oral
[14] = Plasma concentration in ICR mouse at 50 mg/kg, po after 0.5 hrs; design: dose 50 mg/kg, route oral
[15] = AUC (0 to t) in Sprague-Dawley rat at 5 mg/kg, po; design: dose 5 mg/kg, route oral; conditions: plasma
[16] = AUC (0 to infinity) in Sprague-Dawley rat at 5 mg/kg, po; design: time infinity, dose 5 mg/kg, route oral; conditions: plasma
[17] = Plasma concentration in ICR mouse at 50 mg/kg, po after 2.5 hrs; design: dose 50 mg/kg, route oral
[18] = Drug level in ICR mouse gall bladder at 50 mg/kg, po after 2.5 hrs; design: dose 50 mg/kg, route oral; conditions: read-out: Drug uptake
[19] = Half life in Sprague-Dawley rat at 5 mg/kg, po; design: dose 5 mg/kg, route oral; conditions: in vivo
[20] = Drug level in ICR mouse bile at 50 mg/kg, po after 0.5 hrs; design: dose 50 mg/kg, route oral; conditions: read-out: Drug uptake
[21] = Drug level in ICR mouse gall bladder at 50 mg/kg, po after 1 hr; design: dose 50 mg/kg, route oral; conditions: read-out: Drug uptake
[22] = Cmax in ICR mouse plasma at 50 mg/kg, po; design: dose 50 mg/kg, route oral
[23] = Plasma concentration in ICR mouse at 50 mg/kg, po after 1 hr; design: dose 50 mg/kg, route oral
[24] = Drug level in ICR mouse bile at 50 mg/kg, po after 4.5 hrs; design: dose 50 mg/kg, route oral; conditions: read-out: Drug uptake

Cc1ccc(C)c(Oc2ccncc2C(=O)N2CCN(C3CC3)c3ccccc32)c1
Cmax [1]: 56 ng/mL
Tmax [2]: 0.9 h
concentration at 1 h [3]: 2100 nM
AUC(0-t) at 4.5 h [4]: 3380 ng·h/mL
concentration at 2.5 h [5]: 2000 nM
AUC(0-t) at 4.5 h [6]: 3130 ng·h/mL
Cmax [7]: 3700 nM
MRT [8]: 2.4 h
concentration at 4.5 h [9]: 217 ng/g
AUC(0-t) at 4.5 h [10]: 1290 ng·h/mL
concentration at 0.5 h [11]: 294 ng/g
concentration at 4.5 h [12]: 510 nM
Cmax [13]: 523 ng/g
concentration at 0.5 h [14]: 3100 nM
AUC(0-t) [15]: 147 ng·h/mL
AUC(0-inf) [16]: 155 ng·h/mL
concentration at 2.5 h [17]: 2000 nM
concentration at 2.5 h [18]: 306 ng/g
half-life [19]: 1.5 h
concentration at 0.5 h [20]: 1700 nM
concentration at 1 h [21]: 393 ng/g
Cmax [22]: 3600 nM
concentration at 1 h [23]: 2300 nM
concentration at 4.5 h [24]: 2000 nM
